Test results: patent US9151757B2, “Detecting antigen responsive cells in a sample” (Stichting Sanquin Bloedvoorziening, priority 2008, dated 2015)

tested on: CD8+ T cells in PBMCs; assay: Combinatorial coding MHC multimer flow cytometry of enriched, in vitro expanded PBMCs; format: cell-based, human; conditions: enriched PBMCs from 27 HLA-A3 positive melanoma patients, after MACS enrichment and short term in vitro expansion

Question: How did the “CD8+ T cell responses against peptide detected by dual color-encoded pMHC multimer staining” value (shortened to “CD8+ T cell responses”) turn out when “GTYEGLLRR (listed as Homo sapiens) [Tyrp2 301-309, unknown HLA-A3 associated T cell antigen]” was run?
Answer: identification of the unknown HLA-A3 associated T cells antigens

Question: How did the “CD8+ T cell responses” value turn out when HAYIQSLLK (listed as Homo sapiens) was run?
Answer: CD8^+ T cell responses were observed

Question: With QLRALDGGNK (listed as Homo sapiens) as the sequence, how does the “CD8+ T cell responses” value read?
Answer: CD8^+ T cell responses were observed

Question: How did the “CD8+ T cell responses” value turn out when RMYNMVPFF (listed as Homo sapiens) was run?
Answer: CD8^+ T cell responses were observed

Question: Which “CD8+ T cell responses” value does the source give for SLYRDPLPR (listed as Homo sapiens) here?
Answer: CD8^+ T cell responses were observed
